Measurements reported in US8158830B1, “Integrated process for the preparation of tetraaminobenzene” (E. I. du Pont de Nemours and Company, priority 2007, dated 2012).

Assay: solubility of TAB.4HCl in water
Assay type: physicochemical
Settings: water at 25° C.
Protocol: The reaction mixture containing the precipitated TAB salt is then cooled to about 5° C. to about 15° C. and stirred, then filtered. The TAB salt is then washed 44. It may be washed with deaerated aqueous acid, such as HCl (33%), and then optionally with deaerated ethanol or methanol to produce a wet cake material; the optional ethanol or methanol wash can then be recycled 48, 47, and a purge is drawn to prevent accumulation. Using an agitated filter unit during the wash procedures can allow for a reduction of the wash volumes. Under such circumstances, using small amounts of cold water (e.g. about 5° C.) instead of the aqueous acid would also be effective as the TAB salt would have lower solubility in the cold water than it would have in water at about room temperature (e.g. 25° C.). For example, the solubility of TAB.4HCl in water at 25° C. is about 15 wt %.

Nc1cc(N)c(N)cc1N [TAB.4HCl, 1,2,4,5-tetraminobenzene]
solubility in water: about 15 wt %
